Reference: patent US11523610B2, “Regulating plant growth using a diapocarotenoid” (King Abdullah University of Science and Technology, priority 2018, dated 2022)

Assays:
[1] = system: Arabidopsis seedlings (anchor roots after RAM excision); assay: ANR formation after root apical meristem excision (ANR-RE); format: in vivo
Source text: (§1) ANRs were counted in seedlings vertically grown on half strength MS (with 0.5% sucrose +1% agar, 0.5 g/L MES, pH 5.7) media 8 days post-stratification (dps) using a dissection microscope. To investigate ANR formation after root apical meristems (RAM) excision (ANR-RE), RAM of seedlings were excised using sterile scalpels at 5 dps and then grown for another 3 days prior to counting the number of emerged ANRs. RAM of seedlings were excised at 8 dps and then grown for another 3 days prior to counting the number of emerged LRs. For determining the effect of anchorene on lateral roots, the number of emerged lateral roots were counted using a dissection microscope at 8 dps. For primary root length measurements, seedlings were measured using the publicly available ImageJ software (downloaded from rsbweb.nih.gov/ij/) after taking digital photographs. For adventitious root assay, the number of emerged adventitious roots per plant were counted after 5 days of treatment on plates with or without anchorene.
ANR formation under carotenoid-deficient conditions was monitored to determine the role of endogenous carotenoids in ANR development. […] Therefore, ANR formation was monitored after RAM excision (ANR-RE) to stimulate ANR development. ANR measurements were used as an indicator of ANR formation capacity under different conditions. […] Norflurazon (NF) and 2-(4-chlorophenylthio)-triethylamine hydrochloride (CPTA), which block phytoene desaturation and lycopene cyclization, respectively were tested (FIG. 6A). The effect of D15, an inhibitor of CCDs was also investigated. Application of D15 to Arabidopsis seedlings is known to lead to an increase in carotenoid levels.

[2] = system: Arabidopsis seedlings (anchor roots); assay: Anchor root (ANR) emergence/formation in seedlings without RAM excision; format: in vivo; conditions: for activity in promoting ANR formation: anchorene isomer and derivatives, concentrations as indicated in FIGS. 3G-H
Description: (§2) Sterilized Col-0 and mutants seeds were kept at 4° C. in darkness for 3 days to stimulate seed germination, and then sown on half strength MSO plates (with 0.5% sucrose +1% agar, 0.5g/L MES, pH 5.7) supplemented with the indicated chemicals as described below or in the Figures. Plates were vertically grown in PERCIVAL® growth chambers under long day (16 h light/8 h dark, 22° C., 60% relative humidity, light density: 4000 LUX) LED white light [HYPERIKON® 16 W LED Light Bulb A21, 16 W (100 W Equivalent), CRI92, 1620 Lumens, 4000K (Daylight Glow)] conditions. Light fluorescence rates were measured using a digital LUX meter (PEAKTECH® 5025).
as §1
Prior to the anchor root (ANR) measurements, seeds from 10 ecotypes (Po-0, Is-0, Wu-0, Col-0, Cvi-0, Hi-0, Ove-0, Sav-0, Ler and Kin-0) were harvested from plants grown in long-day photoperiod conditions (16h light/8 h darkness, 22° C., 60% humidity). Seeds of all 10 ecotypes were surfaced sterilized and incubated in sterile water at 4° C. for 8 days, for uniform germination. Natural ANR emergence and ANRC was measured as described above (Anchor root assays) for each ecotype. 20 μM anchorene was used to test the responses of the Po-0 and Is-0 ecotypes to anchorene.
Excision of the root apical meristems (RAM) triggers ANR formation (FIGS. 3C-D). […] About 9% of control Col-0 seedlings developed ANRs under normal conditions, while approximately 50% formed ANRs upon RAM excision (FIGS. 4B-C). […] Higher anchorene concentrations (10 and 20 μM) enhanced this ratio to 97% and 100%, respectively (FIGS. 4B-C). There was also an increase in the number of seedlings that developed two ANRs from 0% in the untreated control to approximately 80% upon application of 20 μM anchorene (FIGS. 4B-C). Using a wide range of concentrations, a dose-response curve was established in the presence and absence of RAM excision. […] Thus, the promotion of ANRs is not caused by inhibiting primary root growth.

[3] = system: Arabidopsis root growth (Col-0 seedlings); assay: Primary root length of Arabidopsis seedlings on treated half MS agar plates; format: in vivo; conditions: 25 μM, 7 dps
Description: β-cyclocitral, β-ionone and D′orenone (β-Apo-13-caroteneone) (FIG. 1A) were purchased from Buchem (Netherlands). Diapo1, Diapo2, Diapo3, Diapo4, Diapo5, and Diapo6 (FIG. 1B) were synthesized by Buchem (Netherlands). Diapo3 was also synthesized together with D6-anchorene and anchorene derivatives according to the protocol of SCHEME 2. Apocarotenoids and diapocarotenoids were dissolved in acetone to make stock solutions (10 mM). For the screening experiments, each chemical was diluted in half strength Murashige and Skoog (MS) media (with 0.5% sucrose+1% agar, 0.5 g/L MES, pH 5.7) to reach indicated concentrations of 25 μM and 5 μM. A stock solution of 10 mM GR24 (Chiralix, Netherlands) was also made by diluting GR24 in acetone. Stock solutions of D15 (100 mM), Norflurazone (5 mM), and CPTA (50 mM) were made in dimethyl sulfoxide (DMSO). For experiments, these compounds were diluted in concentrations of 125 μM D15, 500 nM Norflurazone, or 100 μM CPTA, respectively. 1-Naphthaleneacetic acid (NAA) and N-1-Naphthylphthalamic Acid (NPA) were purchased from Sigma-Aldrich (Germany) and dissolved in water to make 1 mM stock solutions. For NAA and NPA treatments, media containing 0.1 μM NAA and 1 μM NPA were used. Unless otherwise noted, all commercially available compounds were used as provided without further purification.
as §2, with “([…]®” for “(PEAKTECH®”
as §1
Six previously identified or predicted diapocarotenoids with chain lengths ranging from C9 to C15 (Diapo1-6) (FIG. 1B) and 3 apocarotenoids (FIG. 1C) were selected to identify new carotenoid-derived signals involved in root development). These compounds were selected because they are available and stable at ambient conditions. Diapo1 (C9) is the expected product formed upon cleavage of all-trans-β-apo-10′ carotenal. Diapo2 (C10) results from cleaving the C7, C8 and C15, C15′ double bonds in different carotenoids and is produced by cyanobacterial retinal-forming enzymes from Cm-apocarotenoids. Diapo3 (C10) is a structural isomer of Diapo2 and a predicted cleavage product that can be formed by cutting the C11, C12 and C11′, C12′ bonds in almost all plant carotenoids (FIGS. 1A, 1B and 17). Diapo4 (C12) results from cleaving the C7, C8 and C13′, C14′ bonds in many carotenoids, and is formed by the CCD1 from apo-10′-lycopenal.

pDR5rev::GFP seedlings = assay: Confocal microscopy of pDR5rev::GFP auxin marker line; format: in vivo, Arabidopsis; conditions: single compound, 20 μM anchorene, 1 μM NF
Source text: To examine pDR5Rev::GFP fluorescence at the collet region, live seedlings were directly used for laser scanning confocal microscopy (Zeiss LSM 510 microscope) examination.
For fluorescence intensity quantification of pDR5Rev::GFP and pPIN3::PIN3-GFP marker lines, ImageJ software (rsbweb.nih.gov/ij/) was used after taking confocal microscopy photos. All calculations are background subtracted.

[4] = LC-MS quantification of anchorene in Arabidopsis tissues
Description: About 30 mg (30-40 mg) of freeze-dried and ground Arabidopsis seedlings tissues were extracted using 1 mL of acetonitrile with anti-oxidant [0.1% butylated hydroxytoluene (BHT)] for 15 min in an ultrasonic bath (Branson® 5510EDTH, 25° C., 15 min), followed by centrifugation for 8 min at 13000 rpm at 4° C. The collected supernatant was dried using a concentrator (Labconco RapidVap® System). The extract was derivatized (SCHEME 3) with 50 μL of derivatization solution containing 5 mg/mL derivatization reagent (N^2,N^2,N^4,N^4-tetraethyl-6-hydrazineyl-1,3,5-triazine-2,4-diamine) (Chemspace) and 1% formic acid in methanol at 37° C. for 15 min. Then the sample solution was diluted to 150 μL with 1% formic acid in methanol and filtered by using 0.22 μm filter before LC-MS analysis.
The quantitative analysis of derivative anchorene were carried out on HPLC-Q-Trap MS/MS. Chromatographic separation was achieved on an Acquity UPLC CSH C18 column (50×2.1 mm; 1.7 μm; Waters) using a mobile phase consisting of water: acetonitrile (95:5, v:v, A) and pure acetonitrile (B), both containing 0.1% formic acid. A gradient was applied, starting with 10% B and increasing to 40% B over 5 min. Then 15% B was increased
within 10 min followed by an increase of 45% B over 2 min. And then 100% B was maintained for 10 min. To equilibrate the column before the next run, the mobile phase was adjusted back to 10% B in 1 min and this concentration was maintained for 8 min prior to the next sample injection. A flow rate of 0.15 mL/min and a column temperature of 40° C. were maintained throughout the run. The eluent of the column was introduced to the mass spectrometer using turbo spray ion source in positive mode. The injection volume was 10 μL. The conditions of the mass spectrometer were set as following: curtain gas: 30; ion spray voltage: 5 kV; temperature: 400° C.; ion source gas 1: 30; ion source gas 2: 40; declustering potential, 55; entrance potential: 10; collision energy: 25; collision cell exit potential: 10. […]

pDR5::LUC seedlings = assay: Luciferase assay in pDR5::LUC auxin marker line; format: in vivo, Arabidopsis; conditions: 1 μM NF, 20 μM anchorene
Description: Luciferase activity was assayed as previously described. Briefly, 1 mL of 5 mM Potassium Luciferin (Gold Biotechnology®) dissolved in water was directly applied to pDR5:LUC seedlings grown vertically on treated half strength MS plates. The luciferin solution was allowed to dry for 5-10 minutes in the dark, at room temperature. Seedlings were then imaged using a Lumazone™ CA automated Chemiluminescence system. Seven minute exposure times were used.
A pDR5::LUC line, which marks LR prebranch sites, was used to track ANR development. […] ANR primordia initiation was observed as early as 3 dps, in anchorene treated pDR5::LUC and 158 pDR5rev::GFP seedling (FIGS. 5A-C).

[5] = 1 μM NF, 100 μM CPTA, 150 μM D15, RAM cut at 5 DAG, grown 3 more days

Compound: CC1=CC(=O)CC(C)(C)[C@@]1(O)/C=C/C(C)=C\C(=O)O [ABA, abscisic acid]
- ANR-RE ([1]; 0.1 and 0.5 μM ABA): did not impact

Compound: C\C(=C/C=C/C=C(\C)C(=O)O)C(=O)O [AR di-acid, (2E,4E,6E)-2,7-dimethylocta-2,4,6-trienedioic acid]
- activity in promoting ANR formation [2]: inactivity

Compound: C\C(=C/C=C/C=C(\C)CO)CO [AR di-alcohol, (2E,4E,6E)-2,7-dimethylocta-2,4,6-triene-1,8-diol]
- activity in promoting ANR formation [2]: inactivity

Compound: CCOC(=O)/C(C)=C/C=C/C=C(\C)C(=O)OCC [AR di-ethyl ester, diethyl (2E,4E,6E)-2,7-dimethylocta-2,4,6-trienedioate]
- activity in promoting ANR formation [2]: inactivity

Compound: CCN(CC)CCSc1ccc(Cl)cc1.Cl [CPTA, 2-(4-chlorophenylthio)-triethylamine hydrochloride]
- ANR-RE [1, 5]: strongly reduced

Compound: CC(/C=C/C=O)=C\C=C\C=O [Diapo1, 10,14′-diapocarotene-10,14′-dial]
- inhibition of primary root growth [3]: weak inhibition

Compound: C\C(C=O)=C/C(C)=C/C=C/C=O [Diapo2, 8,15-diapocarotene-8,15-dial]
- ANR formation ([2]; 25 μM (FIGS. 3G-H)): modest increase
- reduction in primary root growth [3]: approximately 80%

Compound: C\C(C=O)=C/C(C)=C/C=C/C=C/C=O [Diapo4, 8,14′-diapocarotene-8,14′-dial]
- inhibition of primary root growth [3]: weak inhibition

Compound: C\C(C=O)=C/C=C/C=C/C=C(C)/C=C(\C)C=O [Diapo5, 8,12′-diapocarotene-8,12′-dial]
- reduction in primary root growth [3]: approximately 80%

Compound: CC1=C[C@H](O/C=C2/C(=O)O[C@@H]3c4ccccc4C[C@H]23)OC1=O [GR24]
- ANR formation (ANR-RE) ([1]; 1 μM GR24): inhibited ANR formation

Compound: O=C(O)Cc1cccc2ccccc12 [NAA, 1-Naphthaleneacetic acid]
- ANR-RE ([1]; 0.1 μM NAA, 1 μM NPA): greatly increased

Compound: CNc1cnn(-c2cccc(C(F)(F)F)c2)c(=O)c1Cl [NF, Norflurazon]
- GFP signal at the collet / ANR primordia (pDR5rev::GFP seedlings): No significant reduction
- anchorene content of whole seedlings after NF treatment ([4]; 24 hours NF treatment, 2 μM NF): decreases
- anchorene content of whole seedlings after NF treatment ([4]; continuous NF treatment): greatly decreases
- LUC signal in the collet (pDR5::LUC seedlings): clear LUC signal was detected
- ANR-RE [1, 5]: strongly reduced

Compound: O=C(O)c1ccccc1C(=O)Nc1cccc2ccccc12 [NPA, N-1-Naphthylphthalamic Acid]
- ANR-RE ([1]; 0.1 μM NAA, 1 μM NPA): completely blocked
